The record followed here is patent US8226983B2, “Method for producing pulverized organic compound particle” (Activus Pharma Co., Ltd., priority 2007, dated 2012).

The nature of series [1]: Average particle diameter by BET type specific surface area analyzer. The class given is physicochemical. The settings on record: for average particle diameter of the resulting particles: after pulverization; for average particle diameter of the resulting particles / average particle diameter of the starting organic compound: BET method; for average particle diameter of the starting organic compound: before pulverization; for Ave. Diameter after pulverization (nm): as Example 3. The source says: The average particle diameter of the particles can be measured by conventionally used particle size measurement techniques such as a microscopic method, a screening method, a Coulter counter method, a sedimentation method, an air permeation method, and a gas adsorption method, but the average particle diameter according to the present invention means the average particle diameter measured according to a gas adsorption method. The method is based on the principle that when molecules or ions having a known size are adsorbed to the surface of the particles, the particles adsorb the molecules or ion according to the specific surface area. Thus, the method is a method of determining the specific surface area using an adsorption isotherm equation or an isotherm, and calculating the average particle diameter, and the method is excellent as a method for measuring the average particle diameter of finely pulverized particles. Next, the present invention will be described in more detail by way of Examples, but the present invention is not intended to be limited to the following Examples. The measurement of the average particle size was all carried out using a BET type specific surface area analyzer (Macsorb type MH-1201, manufactured by Mountech Co., Ltd.).

The nature of series [2]: Crystallinity by X-ray diffraction. The settings on record: D8 Discover X-ray diffraction apparatus. The format is physicochemical. The source says:
Each crystallinity of the quinolinone derivative before being finely pulverized, the quinolinone derivative obtained in Example 8 and the quinolinone derivative obtained in Comparative Example 8, was examined using an X-ray diffraction measurement apparatus (D8 Discover, manufactured by Bruker AXS, Inc.

For `COc1ccc2c(c1)c(CC(=O)O)c(C)n2C(=O)c1ccc(Cl)cc1` [Comparative Example 1, indomethacin], the “average particle diameter of the resulting particles” value in series [1] is reported as 1,060 nm.

With `CC1=C(/C=C/C(C)=C/C=C/C(C)=C/C=C/C=C(C)/C=C/C=C(C)/C=C/C2=C(C)CCCC2(C)C)C(C)(C)CCC1` [Comparative Example 3, β-carotene], in series [1], the “average particle diameter of the resulting particles” value is listed as 570 nm.

For `CCC(=O)OCC(=O)[C@@]1(OC(=O)CC)[C@@H](C)C[C@H]2[C@@H]3CCC4=CC(=O)C=C[C@]4(C)[C@@]3(Cl)[C@@H](O)C[C@@]21C` [Comparative Example 5, beclometasone dipropionate], the “average particle diameter of the resulting particles” value in series [1] came to 730 nm.

With `CCCCCCCCOc1c(O)c2ccc(NC(=O)C=Cc3cc(OC)c(O)c(OC)c3)cc2n(C)c1=O` [Comparative Example 6, 7-(3,5-dimethoxy-4-hydroxycinnamoylamino)-3-octyloxy-4-hydroxy-1-methyl-2(1H)-quinolinone], in series [1], the “average particle diameter of the resulting particles” value came out at 620 nm.

As to `CCCCCCCCOc1c(O)c2ccc(NC(=O)C=Cc3cc(OC)c(O)c(OC)c3)cc2n(C)c1=O` [Comparative Example 7, 7-(3,5-dimethoxy-4-hydroxycinnamoylamino)-3-octyloxy-4-hydroxy-1-methyl-2(1H)-quinolinone], the “average particle diameter of the resulting particles” value in series [1] turned out to be 128 nm.

As for `Clc1ccc(COC(Cn2ccnc2)c2ccc(Cl)cc2Cl)c(Cl)c1` (stereo not drawn) [Comparative Example 8, miconazole], the “crystallinity (X-ray diffraction)” value in series [2] is reported as “amorphous”. For the same compound, in series [1], the “average particle diameter of the resulting particles” value is 651 nm.

As to `CCC(=O)O[C@]1(C(=O)SCF)[C@H](C)C[C@H]2[C@@H]3C[C@H](F)C4=CC(=O)C=C[C@]4(C)[C@@]3(F)[C@@H](O)C[C@@]21C` [Comparative Example 10, fluticasone propionate], the “average particle diameter of the resulting particles” value in series [1] is on record as 438 nm.

Take `COc1cc(C(=O)NS(=O)(=O)c2ccccc2C)ccc1Cc1cn(C)c2ccc(NC(=O)OC3CCCC3)cc12` [Comparative Example 13, zafirlukast]: the “average particle diameter of the resulting particles” value in series [1] is 558 nm.

Take `CC(C)Cc1ccc(C(C)C(=O)O)cc1` (stereo not drawn) [Comparative Example 14, ibuprofen]: in series [1], the “average particle diameter of the resulting particles” value was 1,900 nm.

Take `CCCCCCCCOc1c(O)c2ccc(NC(=O)C=Cc3cc(OC)c(O)c(OC)c3)cc2n(C)c1=O` [Example 8, 7-(3,5-dimethoxy-4-hydroxycinnamoylamino)-3-octyloxy-4-hydroxy-1-methyl-2(1H)-quinolinone]: the “crystallinity (X-ray diffraction)” value in series [2] is listed as “crystalline structures”.

With `CCC(=O)O[C@]1(C(=O)SCF)[C@H](C)C[C@H]2[C@@H]3C[C@H](F)C4=CC(=O)C=C[C@]4(C)[C@@]3(F)[C@@H](O)C[C@@]21C` [Example 17, fluticasone propionate], the “average particle diameter of the resulting particles” value in series [1] worked out at 114 nm.

For the compound `CCC(=O)O[C@]1(C(=O)SCF)[C@H](C)C[C@H]2[C@@H]3C[C@H](F)C4=CC(=O)C=C[C@]4(C)[C@@]3(F)[C@@H](O)C[C@@]21C` [Example 18, fluticasone propionate], in series [1], the “average particle diameter of the resulting particles” value came to 108 nm.

`CCC(=O)O[C@]1(C(=O)SCF)[C@H](C)C[C@H]2[C@@H]3C[C@H](F)C4=CC(=O)C=C[C@]4(C)[C@@]3(F)[C@@H](O)C[C@@]21C` [Example 19, fluticasone propionate]: the “average particle diameter of the resulting particles” value in series [1] worked out at 103 nm.

For `CCC(=O)O[C@]1(C(=O)SCF)[C@H](C)C[C@H]2[C@@H]3C[C@H](F)C4=CC(=O)C=C[C@]4(C)[C@@]3(F)[C@@H](O)C[C@@]21C` [Example 20, fluticasone propionate], the “average particle diameter of the resulting particles” value in series [1] stood at 94 nm.

Turning to `CCC(=O)O[C@]1(C(=O)SCF)[C@H](C)C[C@H]2[C@@H]3C[C@H](F)C4=CC(=O)C=C[C@]4(C)[C@@]3(F)[C@@H](O)C[C@@]21C` [Example 21, fluticasone propionate], the “average particle diameter of the resulting particles” value in series [1] turned out to be 92 nm.

For the compound `CCC(=O)O[C@]1(C(=O)SCF)[C@H](C)C[C@H]2[C@@H]3C[C@H](F)C4=CC(=O)C=C[C@]4(C)[C@@]3(F)[C@@H](O)C[C@@]21C` [Example 22, fluticasone propionate], the “average particle diameter of the resulting particles” value in series [1] was 70 nm.

As to `CCC(=O)O[C@]1(C(=O)SCF)[C@H](C)C[C@H]2[C@@H]3C[C@H](F)C4=CC(=O)C=C[C@]4(C)[C@@]3(F)[C@@H](O)C[C@@]21C` [Example 23, fluticasone propionate], the “average particle diameter of the resulting particles” value in series [1] amounted to 109 nm.

As to `CCC(=O)OCC(=O)[C@@]1(OC(=O)CC)[C@@H](C)C[C@H]2[C@@H]3CCC4=CC(=O)C=C[C@]4(C)[C@@]3(Cl)[C@@H](O)C[C@@]21C` [beclometasone dipropionate], in series [1], the “average particle diameter of the starting organic compound” value is given as 1,820 nm.

Take `CC(=O)OCC(=O)[C@@]1(O)CC[C@H]2[C@@H]3CCC4=CC(=O)CC[C@]4(C)[C@H]3C(=O)C[C@@]21C` [cortisone acetate]: the “average particle diameter of the starting organic compound” value in series [1] was 1,060 nm. The “Ave. Diameter before pulverization (nm)” value in series [1] (cortisone acetate, Example 24) is listed as 1,060 nm. Further, the “Ave. Diameter after pulverization (nm)” value in series [1] (cortisone acetate, polyol Diethylene glycol) amounted to 480 nm; in series [1] (cortisone acetate, polyol Glycerin) it was 260 nm; in series [1] (cortisone acetate, polyol Polyethylene glycol) it was 590 nm; in series [1] (cortisone acetate, polyol Propylene glycol), 450 nm.

With `CCC(=O)O[C@]1(C(=O)SCF)[C@H](C)C[C@H]2[C@@H]3C[C@H](F)C4=CC(=O)C=C[C@]4(C)[C@@]3(F)[C@@H](O)C[C@@]21C` [fluticasone propionate], the “average particle diameter of the starting organic compound” value in series [1] is listed as 7,850 nm.

Regarding `CC(C)Cc1ccc(C(C)C(=O)O)cc1` (stereo not drawn) [ibuprofen], the “average particle diameter of the starting organic compound” value in series [1] is listed as 18,050 nm.

For `COc1ccc2c(c1)c(CC(=O)O)c(C)n2C(=O)c1ccc(Cl)cc1` [indomethacin], the “average particle diameter of the starting organic compound” value in series [1] is recorded as 3,980 nm.

In the case of `Clc1ccc(COC(Cn2ccnc2)c2ccc(Cl)cc2Cl)c(Cl)c1` (stereo not drawn) [miconazole], the “average particle diameter of the starting organic compound” value in series [1] is given as 10,900 nm.

`CCCCCCCCOc1c(O)c2ccc(NC(=O)C=Cc3cc(OC)c(O)c(OC)c3)cc2n(C)c1=O` [quinolinone derivative, 7-(3,5-dimethoxy-4-hydroxycinnamoylamino)-3-octyloxy-4-hydroxy-1-methyl-2(1H)-quinolinone]: in series [2], the “crystallinity (X-ray diffraction)” value is listed as “crystalline structures”. The “average particle diameter of the starting organic compound” value in series [1] is reported as 1,280 nm.

Take `COc1cc(C(=O)NS(=O)(=O)c2ccccc2C)ccc1Cc1cn(C)c2ccc(NC(=O)OC3CCCC3)cc12` [zafirlukast]: in series [1], the “average particle diameter of the starting organic compound” value is 5,347 nm.

As to `CC1=C(/C=C/C(C)=C/C=C/C(C)=C/C=C/C=C(C)/C=C/C=C(C)/C=C/C2=C(C)CCCC2(C)C)C(C)(C)CCC1` [β-carotene], in series [1], the “average particle diameter of the starting organic compound” value is 1,720 nm.
